Test results as given in patent publication US20240327364A1, “THERAPEUTIC TARGETING OF GPR68 TO INDUCE FERROPTOSIS” (University Of Maryland, Baltimore, priority 2023, published 2024).
Read-outs that look alike come from different tables or passages of the source.

Assays:
P2Y4 = target: T1, P2Y4 (Homo sapiens, UniProt P51582); experiment: GPCR Profiler; assay type: cell-based
T1 construct: host or cells: Chem-1 cells with Gα15

A2B = target: T2, A2B (Homo sapiens, UniProt P29275); experiment: GPCR Profiler; assay type: cell-based
T2 construct: host or cells: Chem-1 cells with promiscuous Gα15
T2 sequence (P29275 whole entry): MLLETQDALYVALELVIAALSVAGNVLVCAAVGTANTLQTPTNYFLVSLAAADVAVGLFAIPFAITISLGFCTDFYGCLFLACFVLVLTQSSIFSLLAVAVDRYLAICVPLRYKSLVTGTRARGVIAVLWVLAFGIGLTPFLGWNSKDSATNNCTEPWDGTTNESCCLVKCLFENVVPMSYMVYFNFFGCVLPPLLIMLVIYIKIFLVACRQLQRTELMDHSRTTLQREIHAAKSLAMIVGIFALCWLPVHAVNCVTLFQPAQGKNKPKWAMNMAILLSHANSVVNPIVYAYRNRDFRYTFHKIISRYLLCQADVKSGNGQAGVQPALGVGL

NDR2 = target: T3, NDR2 (Homo sapiens, UniProt Q9Y2H1); experiment: KinomeScan; assay type: binding; conditions: read-out: % Control
T3 construct: purchased DiscoveRx
T3 sequence (Q9Y2H1 whole entry): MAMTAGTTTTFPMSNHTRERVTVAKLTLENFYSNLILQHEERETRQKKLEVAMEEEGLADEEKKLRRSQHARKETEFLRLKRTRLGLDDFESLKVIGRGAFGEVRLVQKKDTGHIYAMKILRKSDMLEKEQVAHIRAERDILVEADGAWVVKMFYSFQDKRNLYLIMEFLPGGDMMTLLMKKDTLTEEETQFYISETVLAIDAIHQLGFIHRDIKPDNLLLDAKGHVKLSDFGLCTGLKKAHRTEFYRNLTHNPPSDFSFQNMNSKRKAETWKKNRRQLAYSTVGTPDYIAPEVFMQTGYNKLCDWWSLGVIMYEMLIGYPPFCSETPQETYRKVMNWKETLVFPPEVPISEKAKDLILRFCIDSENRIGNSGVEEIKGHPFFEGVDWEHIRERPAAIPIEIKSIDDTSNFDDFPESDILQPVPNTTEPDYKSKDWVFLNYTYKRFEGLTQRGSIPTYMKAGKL

TNK2 = target: T4, TNK2 (Homo sapiens, UniProt Q07912); experiment: KinomeScan; assay type: binding; conditions: read-out: % Control
T4 construct: purchased DiscoveRx (Fremont, CA)

D2 = target: T5, D2 (Homo sapiens, UniProt P14416); experiment: GPCR Profiler; assay type: cell-based
T5 construct: host or cells: Chem-1 cells with Gα15
T5 sequence (P14416 whole entry): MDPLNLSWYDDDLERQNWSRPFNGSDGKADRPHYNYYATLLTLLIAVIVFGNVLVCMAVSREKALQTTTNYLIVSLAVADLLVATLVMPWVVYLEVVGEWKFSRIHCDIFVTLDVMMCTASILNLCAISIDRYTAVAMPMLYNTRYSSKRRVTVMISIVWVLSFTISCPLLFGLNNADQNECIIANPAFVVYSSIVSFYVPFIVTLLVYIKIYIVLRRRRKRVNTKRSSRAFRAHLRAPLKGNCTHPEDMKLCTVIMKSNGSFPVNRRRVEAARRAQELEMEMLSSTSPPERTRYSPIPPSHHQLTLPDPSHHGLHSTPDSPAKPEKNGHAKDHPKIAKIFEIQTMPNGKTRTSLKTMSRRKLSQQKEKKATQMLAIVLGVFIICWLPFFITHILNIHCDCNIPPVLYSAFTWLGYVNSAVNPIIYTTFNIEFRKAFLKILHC

RIOK2 = target: T6, RIOK2 (Homo sapiens, UniProt Q9BVS4); experiment: KinomeScan; assay type: binding; conditions: read-out: % Control
T6 construct: purchased DiscoveRx (Fremont, CA)

MAK = target: T7, MAK (Homo sapiens, UniProt P20794); experiment: KinomeScan; assay type: binding; conditions: read-out: % Control
T7 construct: purchased DiscoveRx
T7 sequence (P20794 whole entry): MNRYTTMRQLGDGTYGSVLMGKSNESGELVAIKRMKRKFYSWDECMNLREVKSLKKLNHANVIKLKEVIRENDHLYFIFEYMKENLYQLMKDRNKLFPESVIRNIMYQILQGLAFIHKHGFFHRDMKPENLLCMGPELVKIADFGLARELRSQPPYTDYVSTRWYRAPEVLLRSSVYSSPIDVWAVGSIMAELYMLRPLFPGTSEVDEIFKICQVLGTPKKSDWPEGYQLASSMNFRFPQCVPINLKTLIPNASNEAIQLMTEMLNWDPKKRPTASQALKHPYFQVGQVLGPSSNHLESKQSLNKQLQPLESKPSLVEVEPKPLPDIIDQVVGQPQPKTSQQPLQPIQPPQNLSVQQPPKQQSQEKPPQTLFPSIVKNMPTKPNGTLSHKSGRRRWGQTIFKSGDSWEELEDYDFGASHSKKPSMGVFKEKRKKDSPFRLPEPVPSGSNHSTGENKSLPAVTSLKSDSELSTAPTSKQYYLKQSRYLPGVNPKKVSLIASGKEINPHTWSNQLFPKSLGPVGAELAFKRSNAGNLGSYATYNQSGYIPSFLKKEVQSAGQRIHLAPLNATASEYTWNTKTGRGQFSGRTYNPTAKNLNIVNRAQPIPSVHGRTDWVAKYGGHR

[1] = target: T8, RSK2(Kin.Dom.1-N-terminal) (Homo sapiens, UniProt P51812); experiment: KinomeScan; assay type: binding; conditions: read-out: % Control
T8 construct: RSK2(Kin.Dom.1-N-terminal); purchased DiscoveRx (Fremont, CA)

GCGR = target: T9, GCGR (Homo sapiens, UniProt P47871); experiment: GPCR Profiler; assay type: cell-based
T9 construct: host or cells: Chem-1 cells expressing Gα15
T9 sequence (P47871 26-477): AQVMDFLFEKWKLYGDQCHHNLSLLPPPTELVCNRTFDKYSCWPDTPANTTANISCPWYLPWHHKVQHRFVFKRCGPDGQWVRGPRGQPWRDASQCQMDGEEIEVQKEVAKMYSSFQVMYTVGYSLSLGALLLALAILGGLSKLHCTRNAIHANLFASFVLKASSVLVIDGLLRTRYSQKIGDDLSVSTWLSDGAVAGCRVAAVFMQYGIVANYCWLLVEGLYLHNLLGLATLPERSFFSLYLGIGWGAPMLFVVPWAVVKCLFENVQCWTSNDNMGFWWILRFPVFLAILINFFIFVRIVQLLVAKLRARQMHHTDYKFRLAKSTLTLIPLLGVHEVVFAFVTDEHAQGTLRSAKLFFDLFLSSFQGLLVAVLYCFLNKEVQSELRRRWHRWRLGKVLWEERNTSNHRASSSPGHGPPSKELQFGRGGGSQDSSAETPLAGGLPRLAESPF

PKMYT1 = target: T10, PKMYT1 (Homo sapiens, UniProt Q99640); experiment: KinomeScan; assay type: binding; conditions: read-out: % Control
T10 construct: purchased DiscoveRx (Fremont, CA)

OPRK1 = target: T11, OPRK1 (Homo sapiens, UniProt P41145); experiment: GPCR Profiler; assay type: cell-based
T11 construct: host or cells: Chem-1 cells expressing Gα15
T11 sequence (P41145 whole entry, species assumed): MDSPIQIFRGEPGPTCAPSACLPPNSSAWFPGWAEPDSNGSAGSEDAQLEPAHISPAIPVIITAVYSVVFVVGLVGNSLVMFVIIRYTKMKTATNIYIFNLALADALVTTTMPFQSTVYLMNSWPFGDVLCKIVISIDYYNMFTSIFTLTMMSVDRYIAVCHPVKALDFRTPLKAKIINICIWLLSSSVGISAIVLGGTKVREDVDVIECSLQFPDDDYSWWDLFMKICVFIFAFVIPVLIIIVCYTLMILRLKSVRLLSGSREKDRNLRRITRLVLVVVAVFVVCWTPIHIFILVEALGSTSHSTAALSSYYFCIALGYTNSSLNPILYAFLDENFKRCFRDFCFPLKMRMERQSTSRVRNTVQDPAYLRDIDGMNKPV

HIPK3 = target: T12, HIPK3 (Homo sapiens, UniProt Q9H422); experiment: KinomeScan; assay type: binding; conditions: read-out: % Control
T12 construct: purchased DiscoveRx (Fremont, CA)

NEK6 = target: T13, NEK6 (Homo sapiens, UniProt Q9HC98); experiment: KinomeScan; assay type: binding; conditions: read-out: % Control
T13 construct: purchased DiscoveRx
T13 sequence (Q9HC98 whole entry): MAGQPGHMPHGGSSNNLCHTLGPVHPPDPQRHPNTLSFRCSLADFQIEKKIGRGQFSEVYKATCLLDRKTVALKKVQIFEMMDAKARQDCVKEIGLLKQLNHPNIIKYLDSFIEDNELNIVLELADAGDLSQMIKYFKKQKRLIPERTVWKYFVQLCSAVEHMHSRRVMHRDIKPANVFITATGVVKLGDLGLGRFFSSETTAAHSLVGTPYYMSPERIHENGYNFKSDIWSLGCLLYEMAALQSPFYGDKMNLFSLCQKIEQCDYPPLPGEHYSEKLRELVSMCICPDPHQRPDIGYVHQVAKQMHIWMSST

PIK3CG = target: T14, PIK3CG (Homo sapiens, UniProt P48736); experiment: KinomeScan; assay type: binding; conditions: read-out: % Control
T14 construct: purchased DiscoveRx (Fremont, CA)
T14 sequence (P48736 whole entry): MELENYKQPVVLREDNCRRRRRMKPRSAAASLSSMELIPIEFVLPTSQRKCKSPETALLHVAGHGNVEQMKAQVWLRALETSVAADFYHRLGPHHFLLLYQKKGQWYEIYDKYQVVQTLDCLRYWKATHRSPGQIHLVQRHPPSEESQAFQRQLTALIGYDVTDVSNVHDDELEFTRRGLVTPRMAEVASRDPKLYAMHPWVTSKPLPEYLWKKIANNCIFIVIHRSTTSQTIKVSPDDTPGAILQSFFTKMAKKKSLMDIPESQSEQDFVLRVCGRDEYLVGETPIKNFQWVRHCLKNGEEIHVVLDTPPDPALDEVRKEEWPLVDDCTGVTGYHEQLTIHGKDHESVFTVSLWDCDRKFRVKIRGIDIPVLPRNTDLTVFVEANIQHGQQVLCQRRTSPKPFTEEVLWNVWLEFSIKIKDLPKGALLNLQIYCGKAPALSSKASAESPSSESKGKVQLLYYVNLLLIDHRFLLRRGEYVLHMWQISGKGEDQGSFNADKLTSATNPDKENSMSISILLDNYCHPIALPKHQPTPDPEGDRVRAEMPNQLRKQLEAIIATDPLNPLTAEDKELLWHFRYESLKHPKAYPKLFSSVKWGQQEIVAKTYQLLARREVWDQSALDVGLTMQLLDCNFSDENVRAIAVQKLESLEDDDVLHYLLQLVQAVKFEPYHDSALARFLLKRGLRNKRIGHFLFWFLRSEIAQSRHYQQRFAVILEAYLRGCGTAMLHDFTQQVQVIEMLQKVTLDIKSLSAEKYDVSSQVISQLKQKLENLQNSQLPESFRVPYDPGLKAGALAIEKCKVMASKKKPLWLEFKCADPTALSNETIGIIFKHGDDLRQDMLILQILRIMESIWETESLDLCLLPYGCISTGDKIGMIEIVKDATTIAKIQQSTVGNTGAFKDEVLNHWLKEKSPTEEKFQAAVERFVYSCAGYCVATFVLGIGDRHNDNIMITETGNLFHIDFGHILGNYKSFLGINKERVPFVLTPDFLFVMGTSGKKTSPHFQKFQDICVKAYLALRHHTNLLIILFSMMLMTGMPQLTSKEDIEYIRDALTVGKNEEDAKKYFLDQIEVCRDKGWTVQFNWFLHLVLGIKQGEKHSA

CDK11 = target: T15, CDK11 (Homo sapiens, UniProt Q9BWU1); experiment: KinomeScan; assay type: binding; conditions: read-out: % Control
T15 construct: purchased DiscoveRx (KinomeScan service)
T15 sequence (Q9BWU1 whole entry): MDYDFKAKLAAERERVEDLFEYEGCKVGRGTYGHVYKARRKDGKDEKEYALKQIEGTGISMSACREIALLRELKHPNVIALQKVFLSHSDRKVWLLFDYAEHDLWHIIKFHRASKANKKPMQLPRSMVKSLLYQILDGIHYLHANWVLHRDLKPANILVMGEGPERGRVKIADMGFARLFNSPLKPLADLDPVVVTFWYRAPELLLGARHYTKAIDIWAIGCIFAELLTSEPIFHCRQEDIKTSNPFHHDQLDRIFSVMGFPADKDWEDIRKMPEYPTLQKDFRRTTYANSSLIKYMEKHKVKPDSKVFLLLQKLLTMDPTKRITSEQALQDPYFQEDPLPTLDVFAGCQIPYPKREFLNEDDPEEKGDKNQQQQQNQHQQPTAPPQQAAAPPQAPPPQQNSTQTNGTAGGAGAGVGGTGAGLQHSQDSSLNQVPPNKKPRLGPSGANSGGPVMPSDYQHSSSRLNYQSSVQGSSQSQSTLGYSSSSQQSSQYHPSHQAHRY

TTK = target: T16, TTK (Homo sapiens, UniProt P33981); experiment: KinomeScan; assay type: binding; conditions: read-out: % Control
T16 construct: purchased DiscoveRx

PIM3 = target: T17, PIM3 (Homo sapiens, UniProt Q86V86); experiment: KinomeScan; assay type: binding; conditions: read-out: % Control
T17 construct: purchased DiscoveRx (Fremont, CA)

REC-1 = experiment: Cell Titer-Glo viability, B-cell lymphoma; assay type: cell-based; conditions: 72 hours
Description: (§1) OGM2 kills wide variety of cancer cell types. Cell sensitivity can be classified in to Very Sensitive (LC50<2 μM), Sensitive (LC50=2 to 10 μM), Mildly Sensitive (LC50>10 μM), and Refractory (no killing at 10 μM). The listed established cell were incubated with OGM2 at 2 μM or 10 μM for 72 hours under standard cell culture conditions, and relative cell number was assessed using Cell Titer-Glo Luminescent Cell Viability Assay (Promega™) following the manufacturer's instructions. Luminescence was determined using a Cytation 5 reader and Gen5 software package (BioTek™).
(§2) Cancer cells, which are very sensitive to killing by OGM2 (LCs <2 μM), with reported mRNA expression of GPR68 and the related proton sensing receptor GPR4. LC50's (concentrations causing 50% lethality) were determined using CellTiter-Glo (Promega™, G7570). Cells were plated in 12-well plates (CELLTREAT Scientific Products, 229112) in 1 ml of DMEM with high glucose, GlutaMAX, HEPES, or RPMI 1640 with Penicillin-Streptomycin (ThermoFisher™, 10564029, 11875119 and 15140122) and 10% FBS. Cells were incubated overnight at 37° C. in 5% CO2. Then 1 mL of fresh media was added with DMSO, OGM, or positive control (Erastin; APExBIO Technology, LLC, B1524) and cells incubated for 3 days. On the third day, all media was removed, cells were rinsed with 1×PBS, PBS was removed, and 200 μL of 1× Passive Lysis Buffer (Promega™, E1941) was added to each well. […]. […] Plates were briefly spun down and read on a GloMax-Multi Detection System (Promega™).
(§3) The cells listed in the tables above were incubated with OGM2 at 2 μM or 10 μM for 72 hours under standard cell culture conditions, and relative cell number was assessed using Cell Titer-Glo Luminescent Cell Viability Assay (Promega™) following the manufacturer's instructions. Luminescence was determined using a Cytation 5 reader and Gen5 software package (BioTek™). […] The consensus normalized expression value (“nTPM”=normalize transcript per million) was calculated as the maximum nTPM value for each gene in the two data sources.

A549 = experiment: Cell Titer-Glo viability, Lung Adenocarcinoma; assay type: cell-based; conditions: 72 hours
Description: as §1, §2, §3

DU 145 = experiment: Cell Titer-Glo viability, Prostate adenocarcinoma; assay type: cell-based; conditions: for CC50: Homo sapiens, read-out: LC50 (the source's name)
Description: as §1
(§4) Cancer cells, which are very sensitive to killing by OGM2 (LCs <2 μM), with reported mRNA expression of GPR68 and the related proton sensing receptor GPR4. LC50's (concentrations causing 50% lethality) were determined using CellTiter-Glo (Promega™, G7570). Cells were plated in 12-well plates (CELLTREAT Scientific Products, 229112) in 1 ml of DMEM with high glucose, GlutaMAX, HEPES, or RPMI 1640 with Penicillin-Streptomycin (ThermoFisher™, 10564029, 11875119 and 15140122) and 10% FBS. Cells were incubated overnight at 37° C. in 5% CO2. Then 1 mL of fresh media was added with DMSO, OGM, or positive control (Erastin; APExBIO Technology, LLC, B1524) and cells incubated for 3 days. On the third day, all media was removed, cells were rinsed with 1×PBS, PBS was removed, and 200 μL of 1× Passive Lysis Buffer (Promega™, E1941) was added to each well. […]. Subsequently, 20 μL of lysate was added to 100 μL CellTiter-Glo™ reagent on a LUMITRAC 200 plate (Greiner™ bio-one, 82050-726). Plates were briefly spun down and read on a GloMax-Multi Detection System (Promega™).
(§5) The cells listed in the tables above were incubated with OGM2 at 2 μM or 10 μM for 72 hours under standard cell culture conditions, and relative cell number was assessed using Cell Titer-Glo Luminescent Cell Viability Assay (Promega™) following the manufacturer's instructions. Luminescence was determined using a Cytation 5 reader and Gen5 software package (BioTek™). RNA expression of GPR68 and GPR4 in the corresponding cancer cell lines are listed, according to the publicly available The Human Protein Atlas version 22.0 and Ensembl version 103.38 (see proteinatlas.org). The consensus normalized expression value (“nTPM”=normalize transcript per million) was calculated as the maximum nTPM value for each gene in the two data sources.

PC-3 = experiment: Cell Titer-Glo viability, Prostate adenocarcinoma; assay type: cell-based; conditions: for CC50: Homo sapiens, read-out: LC50 (the source's name)
Description: as §1, §4, §5

T1 sequence (P51582 whole entry, species assumed): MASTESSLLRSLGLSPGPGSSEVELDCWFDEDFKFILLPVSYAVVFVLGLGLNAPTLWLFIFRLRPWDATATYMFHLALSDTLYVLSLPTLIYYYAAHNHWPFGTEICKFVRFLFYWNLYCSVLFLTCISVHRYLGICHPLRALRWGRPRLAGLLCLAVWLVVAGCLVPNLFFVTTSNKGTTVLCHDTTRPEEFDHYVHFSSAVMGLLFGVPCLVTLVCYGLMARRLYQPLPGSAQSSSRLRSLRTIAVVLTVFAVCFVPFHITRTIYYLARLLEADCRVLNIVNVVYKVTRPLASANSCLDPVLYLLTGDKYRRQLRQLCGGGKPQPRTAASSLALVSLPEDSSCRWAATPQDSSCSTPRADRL

With `CCc1ccc2c(c1)C1(NN=C(c3cccc4ccccc34)S1)C(=O)N2` (stereo not drawn) [OGM1, 5-ethyl-5′-naphthalen-1-ylspiro[1H-indole-3,2′-3H-1,3,4-thiadiazole]-2-one] as the compound, how does the Antagonism (P2Y4; 10 uM) read?
The Antagonism was 5.4.

And the Agonism (P2Y4; 12.5 uM)?
Its Agonism is −0.8.

What about the Antagonism (A2B; 10 uM) of the same compound?
The Antagonism was −12.8.

What about the Agonism (A2B; 12.5 uM) of the same compound?
The Agonism was 4.4.

What about the remaining binding at 10 µM (NDR2) of the same compound?
Its remaining binding at 10 µM is 82%.

And the remaining binding at 10 µM (TNK2)?
Its remaining binding at 10 µM is 100%.

And the Antagonism (D2; 10 uM)?
The Antagonism was 11.4.

What about the Agonism (D2; 12.5 uM) of the same compound?
The Agonism was −0.5.

And the remaining binding at 10 µM (RIOK2)?
The remaining binding at 10 µM was 100%.

And the remaining binding at 10 µM (MAK)?
Its remaining binding at 10 µM is 90%.

And the remaining binding at 10 µM [1]?
Its remaining binding at 10 µM is 95%.

What about the Antagonism (GCGR; 10 uM) of the same compound?
Its Antagonism is 6.1.

What about the Agonism (GCGR; 12.5 uM) of the same compound?
Its Agonism is −0.1.

What about the remaining binding at 10 µM (PKMYT1) of the same compound?
The remaining binding at 10 µM was 78%.

And the Antagonism (OPRK1; 10 uM)?
Its Antagonism is −8.1.

What about the Agonism (OPRK1; 12.5 uM) of the same compound?
Its Agonism is 4.3.

What about the remaining binding at 10 µM (HIPK3) of the same compound?
Its remaining binding at 10 µM is 67%.

What about the remaining binding at 10 µM (NEK6) of the same compound?
The remaining binding at 10 µM was 100%.

And the remaining binding at 10 µM (PIK3CG)?
The remaining binding at 10 µM was 100%.

And the remaining binding at 10 µM (CDK11)?
The remaining binding at 10 µM was 100%.

And the remaining binding at 10 µM (TTK)?
The remaining binding at 10 µM was 75%.

And the remaining binding at 10 µM (PIM3)?
The remaining binding at 10 µM was 73%.

`CCc1ccc2c(c1)C1(NN=C(c3ccccc3)S1)C(=O)N2` (stereo not drawn) [OGM2] was tested. Which “% Survival 2 μM OGM” value (REC-1) did it give?
Its value is 0.7%.

What about the “% Survival 10 μM OGM” value (REC-1) of the same compound?
The value was 0.0%.

And the CC50 (REC-1; Homo sapiens, Rec1, read-out: LC50 (the source's name))?
The CC50 was less than 2000 nM.

What about the “% Survival 2 μM OGM” value (A549) of the same compound?
Its value is 33.6%.

And the “% Survival 10 μM OGM” value (A549)?
The value was 18.0%.

And the CC50 (A549; Homo sapiens, A549, read-out: LC50 (the source's name))?
Its CC50 is less than 2000 nM.

And the “% Survival 2 μM OGM” value (DU 145; 72 hours)?
The value was 44.2%.

And the “% Survival 10 μM OGM” value (DU 145; 72 hours)?
Its value is 22.2%.

What about the “% Survival 2 μM OGM” value (DU 145; DU 145 cells, 2 μM, 72 hours, Cell Titer-Glo) of the same compound?
The value was 44.2%.

And the “% Survival 10 μM OGM” value (DU 145; DU 145 cells, 10 μM, 72 hours, Cell Titer-Glo)?
The value was 22.2%.

And the CC50 (DU 145; DU-145, 72 hours)?
The CC50 was less than 2000 nM.

What about the CC50 (DU 145; DU 145 cells, concentration causing 50% lethality) of the same compound?
The CC50 was less than 2000 nM.

And the Class (PC-3)?
The Class was “Mildly”.

And the “% Survival 2 μM OGM” value (PC-3; 72 hours)?
Its value is 101.3%.

What about the “% Survival 10 μM OGM” value (PC-3; 72 hours) of the same compound?
Its value is 74.5%.

And the CC50 (PC-3; PC-3, 72 hours)?
The CC50 was greater than 10 µM.

And the CC50 (PC-3; PC-3 cells, concentration causing 50% lethality)?
Its CC50 is greater than 10 µM.

And the “% Survival 2 μM OGM” value (PC-3; PC-3 cells, 2 μM, 72 hours, Cell Titer-Glo)?
The value was 101.3%.

What about the “% Survival 10 μM OGM” value (PC-3; PC-3 cells, 10 μM, 72 hours, Cell Titer-Glo) of the same compound?
The value was 74.5%.

What about the Class (PC-3; Table 13) of the same compound?
Its Class is “Low”.
